Data: patent US10363257B2 (ZENITH EPIGENETICS LTD., priority 2013, dated 2019)

Assays:
[1] = test system: human AML MV-4-11 cells; assay: Inhibition of cell proliferation in MV4-11 cells (CellTiter Aqueous One); format: cell-based; conditions: for IC50: MV4-11, 72 h; for Cell Proliferation activity: 72 h
How it was run: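 Exponentially growing MV-4-11 cells (5×10^4/well) were treated immediately with two-fold dilutions of compound from 30 μM to 0.2 μM, in triplicate, for 72 h at 37° C, 5% CO2. Viability was measured by MTS absorbance at 490 nm after 3–4 h. Proliferation relative to DMSO after blank correction gave IC50.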

[2] = target: T1, Brd4 bromodomain 1 (BRD4(1)) (Homo sapiens, UniProt O60885); assay: Inhibition of tetra-acetylated histone H4 binding to Brd4 bromodomain 1 (TR-FRET); conditions: tetra-acetylated histone H4 peptide, first bromodomain of Brd4
T1 construct: made in house; host or cells: E. coli BL21(DE3)
How it was run: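 His-tagged BRD4(1) from E. coli (200 nM) with biotinylated tetra-acetylated H4 peptide (25-50 nM), Eu-cryptate streptavidin and XL665 anti-His, in HEPES pH 7.4/phosphate/KF buffer, 0.2% DMSO. After 2 h at room temperature, TR-FRET 665/620 nm ratio read; IC50 from dose-response curves.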

[3] = test system: hIL-6 mRNA; assay: Inhibition of hIL-6 mRNA transcription in LPS-stimulated U937 cells; format: cell-based; conditions: Homo sapiens, U-937; PMA-differentiated U937 cells, 1 h pretreatment, 1 ug/mL LPS stimulation, 3 h; read-out: IL-6 activity (Inhibition of hIL-6 mRNA Transcription)
Description: In this example, hIL-6 mRNA in tissue culture cells was quantitated to measure the transcriptional inhibition of hIL-6 when treated with a compound of the invention.
Human leukemic monocyte lymphoma U937 cells (CRL-1593.2) were plated at a density of 3.2×10^4 cells per well in a 96-well plate in 100 μL RPMI-1640 containing 10% FBS and penicillin/streptomycin, and differentiated into macrophages for 3 days in 60 ng/mL PMA ([…]) at 37° C. in 5% CO2 prior to the addition of compound. The cells were pretreated for 1 h with increasing concentrations of test compound in 0.1% DMSO prior to stimulation with 1 ug/mL lipopolysaccharide from Escherichia coli. Triplicate wells were used for each concentration. The cells were incubated at 37° C., 5% CO2 for 3 h before the cells were harvested. At time of harvest, media was removed and cells were rinsed in 200 μL PBS. Cells were harvested using the mRNA Catcher PLUS kit according to manufacturer's instructions. The eluted mRNA was then used in a one-step quantitative real-time PCR reaction using components of the RNA UltraSense™ One-Step Kit (Life Technologies) together with Applied Biosystems TaqMan® primer-probes for hIL-6 and Cyclophilin. Real-time PCR plates were run on a VIa™ 7 real time PCR machine (Applied Biosystems), data was analyzed, normalizing the Ct values for hIL-6 to an internal control, prior to determining the fold expression of each sample, relative to the control.

[4] = test system: c-myc; assay: Inhibition of c-myc expression (mRNA, real-time PCR) in MV4-11 cells; format: cell-based; conditions: Human AML MV4-11 cells, 3 h, cMYC mRNA
How it was run: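 MV4-11 cells treated 3 h at 37° C with increasing compound concentrations or 0.1% DMSO, in triplicate. cMYC mRNA quantified by one-step TaqMan real-time PCR, Ct normalized to internal control (Cyclophilin primers used), fold expression relative to control.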

Structure (SMILES)	IC50 [1]	IC50 [2]	IC50 [3]	IC50 [4]	Cell Proliferation activity [1]
CCNc1nc2ncc(-c3c(C)noc3C)cc2n1CC1CC1 [compound 131, 1-(cyclopropylmethyl)-6-(3,5-dimethylisoxazol-4-yl)-N-ethyl-1H-imidazo[4,5-b]pyridin-2-amine]	300 to 3000 nM	≤ 300 nM	300 to 3000 nM	300 to 3000 nM	–
CCn1c(=O)n(Cc2ccccc2)c2cc(-c3c(C)noc3C)ccc21 [compound 122]	≤ 300 nM	≤ 300 nM	300 to 3000 nM	300 to 3000 nM	–
Cc1noc(C)c1-c1ccc2ncc(=O)n(Cc3ccccc3)c2c1 [Example Compound 11, 1-Benzyl-7-(3,5-dimethylisoxazol-4-yl)quinoxalin-2(1H)-one]	–	≤ 300 nM	300 to 3000 nM	–	Not active
Cc1noc(C)c1-c1cc2c(ccn2Cc2ccccc2)[nH]c1=O [Example Compound 56, 1-benzyl-6-(3,5-dimethylisoxazol-4-yl)-1H-pyrrolo[3,2-b]pyridin-5(4H)-one]	–	300 to 3000 nM	3000 to 30000 nM	–	–
Cc1cnn(C)c1-c1cc([N+](=O)[O-])c2nc(C)n(Cc3ccccc3)c2c1 [compound 81, 1-benzyl-6-(1,4-dimethyl-1H-pyrazol-5-yl)-2-methyl-4-nitro-1H-benzo[d]imidazole]	3000 to 30000 nM	300 to 3000 nM	300 to 3000 nM	3000 to 30000 nM	–
Cc1noc(C)c1-c1cnc2nc(C3CCOCC3)n(Cc3ccccc3)c2c1 [compound 220, 4-(1-benzyl-2-(tetrahydro-2H-pyran-4-yl)-1H-imidazo[4,5-b]pyridin-6-yl)-3,5-dimethylisoxazole]	300 to 3000 nM	≤ 300 nM	300 to 3000 nM	3000 to 30000 nM	–
Cc1noc(C)c1-c1cnc2nc(C)n(Cc3ccc(O)cc3)c2c1 [compound 84, 4-((6-(3,5-dimethylisoxazol-4-yl)-2-methyl-1H-imidazo[4,5-b]pyridin-1-yl)methyl)phenol]	300 to 3000 nM	≤ 300 nM	300 to 3000 nM	300 to 3000 nM	–
Cc1noc(C)c1-c1cnc2ccn(Cc3ccccc3)c2c1 [compound 71, 4-(1-benzyl-1H-pyrrolo[3,2-b]pyridin-6-yl)-3,5-dimethylisoxazole]	300 to 3000 nM	≤ 300 nM	300 to 3000 nM	300 to 3000 nM	–
Cc1nc2ncc(-c3ccnn3C)cc2n1Cc1ccccc1 [compound 154, 1-benzyl-2-methyl-6-(1-methyl-1H-pyrazol-5-yl)-1H-imidazo[4,5-b]pyridine]	3000 to 30000 nM	≤ 300 nM	3000 to 30000 nM	–	–
Cc1noc(C)c1-c1cnc2ccn(Cc3ccc(F)cc3)c2n1 [Example Compound 50, 4-(5-(4-fluorobenzyl)-5H-pyrrolo[2,3-b]pyrazin-3-yl)-3,5-dimethylisoxazole]	3000 to 30000 nM	≤ 300 nM	300 to 3000 nM	3000 to 30000 nM	–
Cc1noc(C)c1-c1nc(N)c2ncn(Cc3ccccc3)c2n1 [Example Compound 1, 9-Benzyl-2-(3,5-dimethylisoxazol-4-yl)-9H-purin-6-amine]	–	300 to 3000 nM	300 to 3000 nM	–	Not active
Cc1noc(C)c1-c1cc([N+](=O)[O-])c2nc(N3CCCC3)n(Cc3ccccc3)c2c1 [compound 135, 4-(1-benzyl-4-nitro-2-(pyrrolidin-1-yl)-1H-benzo[d]imidazol-6-yl)-3,5-dimethylisoxazole]	300 to 3000 nM	≤ 300 nM	≤ 300 nM	–	–
Cc1noc(C)c1-c1cc(C(N)=O)c2[nH]c(=O)n(Cc3ccccc3)c2c1 [Example Compound 21, 1-benzyl-6-(3,5-dimethylisoxazol-4-yl)-2-oxo-2,3-dihydro-1H-benzo[d]imidazole-4-carboxamide]	300 to 3000 nM	≤ 300 nM	≤ 300 nM	–	–
Cc1noc(C)c1-c1cnc2nc(C)n(Cc3ccc(C#N)cc3)c2c1 [compound 70, 4-((6-(3,5-dimethylisoxazol-4-yl)-2-methyl-1H-imidazo[4,5-b]pyridin-1-yl)methyl)benzonitrile]	3000 to 30000 nM	≤ 300 nM	300 to 3000 nM	–	–
Cc1noc(C)c1-c1cc([N+](=O)[O-])c2c(c1)n(Cc1ccccc1)c(=O)n2C [compound 150, 1-benzyl-6-(3,5-dimethylisoxazol-4-yl)-3-methyl-4-nitro-1H-benzo[d]imidazol-2(3H)-one]	–	≤ 300 nM	300 to 3000 nM	–	Not active
CC(=O)Nc1cc(-c2c(C)noc2C)cc2c1n(C)c(=O)n2Cc1ccccc1 [compound 164, N-(1-benzyl-6-(3,5-dimethylisoxazol-4-yl)-3-methyl-2-oxo-2,3-dihydro-1H-benzo[d]imidazol-4-yl)acetamide]	–	≤ 300 nM	≤ 300 nM	–	–
Cc1noc(C)c1-c1cc([N+](=O)[O-])c2nc(N3CCN(C)CC3)n(Cc3ccccc3)c2c1 [compound 136, 4-(1-benzyl-2-(4-methylpiperazin-1-yl)-4-nitro-1H-benzo[d]imidazol-6-yl)-3,5-dimethylisoxazole]	300 to 3000 nM	≤ 300 nM	300 to 3000 nM	–	–
Cc1noc(C)c1-c1cnc2ncn(Cc3ccc(Cl)cc3)c2c1 [Example Compound 43, 4-(1-(4-chlorobenzyl)-1H-imidazo[4,5-b]pyridin-6-yl)-3,5-dimethylisoxazole]	300 to 3000 nM	≤ 300 nM	300 to 3000 nM	–	–
Cc1noc(C)c1-c1cc2c(cn1)ncn2Cc1ccccc1 [Example Compound 31, 4-(1-benzyl-1H-imidazo[4,5-c]pyridin-6-yl)-3,5-dimethylisoxazole]	3000 to 30000 nM	300 to 3000 nM	300 to 3000 nM	–	–
Cc1noc(C)c1-c1cc(C#N)c2nc(C)n(Cc3ccccc3)c2c1 [compound 85, 1-benzyl-6-(3,5-dimethylisoxazol-4-yl)-2-methyl-1H-benzo[d]imidazole-4-carbonitrile]	–	≤ 300 nM	300 to 3000 nM	≤ 300 nM	–
Cc1noc(C)c1-c1cnc2nc(NC3CCC(O)CC3)n(Cc3ccccc3)c2c1 (centres unmarked) [compound 207, 4-((1-benzyl-6-(3,5-dimethylisoxazol-4-yl)-1H-imidazo[4,5-b]pyridin-2-yl)amino)cyclohexanol]	≤ 300 nM	≤ 300 nM	≤ 300 nM	–	–
Cc1noc(C)c1-c1cnc2nc(C)n(CC3CC3)c2c1 [Example Compound 63, 4-(1-(cyclopropylmethyl)-2-methyl-1H-imidazo[4,5-b]pyridin-6-yl)-3,5-dimethylisoxazole]	–	300 to 3000 nM	300 to 3000 nM	3000 to 30000 nM	–
Cc1noc(C)c1-c1cc(N)c2c(c1)n(Cc1ccccc1)c(=O)n2C [compound 162, 4-amino-1-benzyl-6-(3,5-dimethylisoxazol-4-yl)-3-methyl-1H-benzo[d]imidazol-2(3H)-one]	≤ 300 nM	≤ 300 nM	≤ 300 nM	–	–
Cc1noc(C)c1-c1cnc2ncn(Cc3ccc(C(F)(F)F)cc3)c2c1 [Example Compound 41, 3,5-dimethyl-4-(1-(4-(trifluoromethyl)benzyl)-1H-imidazo[4,5-b]pyridin-6-yl)isoxazole]	300 to 3000 nM	≤ 300 nM	3000 to 30000 nM	–	–
COCCNc1nc2c([N+](=O)[O-])cc(-c3c(C)noc3C)cc2n1Cc1ccccc1 [compound 137, 1-benzyl-6-(3,5-dimethylisoxazol-4-yl)-N-(2-methoxyethyl)-4-nitro-1H-benzo[d]imidazol-2-amine]	≤ 300 nM	≤ 300 nM	≤ 300 nM	–	–
Cc1noc(C)c1-c1ccc2[nH]cc(Nc3ccccc3)c2n1 [Example Compound 23, 5-(3,5-dimethylisoxazol-4-yl)-N-phenyl-1H-pyrrolo[3,2-b]pyridin-3-amine]	3000 to 30000 nM	300 to 3000 nM	300 to 3000 nM	–	–
Cc1noc(C)c1-c1cnc2c(c1)ncn2Cc1ccc(C(F)(F)F)cc1 [Example Compound 40, 3,5-dimethyl-4-(3-(4-(trifluoromethyl)benzyl)-3H-imidazo[4,5-b]pyridin-6-yl)isoxazole]	–	300 to 3000 nM	3000 to 30000 nM	–	Not active
